Measurements taken from patent US20060106028A1, “Polycyclic aromatics and derivatives thereof and processes for their preparation” (priority 2004, published 2006).
Values after ≈ are worked out from the molar mass of the structure shown.

Assays:
[1] = tested on: HT-29 (colorectal carcinoma); experiment: In vitro tumor growth inhibition (GI50, propidium iodide); type: cell-based; conditions: Homo sapiens, 96 hrs
CD-1 nu/nlu mice = experiment: Acute toxicity in CD-1 nu/nu mice; type: in vivo; conditions: i.v.; 6% Tween/4.5% Glycocholate/5% EtOH formulation
Description: (§1) Toxicity and therapeutic efficacy of polycyclic aromatic compounds can be determined by standard pharmaceutical procedures in cell cultures or experimental animals. Therapeutic efficacy is determined in animal models as described above and in the examples herein. Toxicity studies are done to determine the lethal dose for 10% of tested animals (LD10). Animals are treated at the maximum tolerated dose (MTD): the highest dose not producing mortality or greater than 20% body weight loss. The effective dose (ED) is related to the MTD in a given tumor model to determine the therapeutic index of the compound.
(§2) In vivo toxicity: With CD1 mice, the maximum tolerated dose (MTD) for a single-dose via i.v. or i.p. routes in 1% SDS formulation was ≧5 mg/kg. The acute toxicity in CD-1 nu/nlu mice of Compound 1 was also determined in 6% Tween/4.5% Glycocholate/5% EtOH formulation.

[2] = Acute toxicity in CD-1 nu/nu mice; type: in vivo; conditions: CD-1 nu/nu, mouse, in vivo, 6% Tween/4.5% Glycocholate/5% EtOH formulation
Description: as §1, §2

[3] = In vivo toxicity: single-dose maximum tolerated dose in CD1 mice; conditions: mouse, other: i.v. or i.p. (intravenous or intraperitoneal), single-dose via i.v. or i.p. routes, 1% SDS formulation
Description: as §1, §2

[4] = tested on: Escherichia coli (ATCC™ 25922); experiment: Antibacterial activity (NCCLS M7-A5); type: cell-based; conditions: MH medium
[5] = tested on: Saccharomyces cerevisiae FHCRC-50514; experiment: Antifungal activity, MIC (NCCLS M27-A); type: cell-based; conditions: FHCRC50514, after 24 hours, YPD medium
Description: (§3) Testing of antifungal activity was performed according to NCCLS method (NCCLS. Reference Method for Broth Dilution Antifungal Susceptibility Testing of Yeasts; Approved Standard. NCCLS document M27-A (ISBN 1-56238-328-0). NCCLS, 940 West Valley Road, Suite 1400, Wayne, Pa. 19087-1898 USA; www.nccls.org.). Compound 1 was prepared as 100× stock solutions in DMSO, with concentrations ranging from 3.2 mg/mL to 0.003 mg/mL (a two-fold dilution series over 11 points). An aliquot of each 100× stock solution was diluted 50-fold in test medium described below to give a set of eleven (11) 2× solutions. 50 μL of each of the eleven 2× solutions was aliquoted into the corresponding well of a 12-well row, with the final well reserved for medium alone control. Inoculum density for each indicator strain was adjusted to OD600=0.1 in 5 mL 0.85% saline, then further diluted 1/1000 in YPD medium. 50 μL of the final dilution (in test medium) of each indicator strain was added to each well of a 12-well row. This brings the final dilution of the test article or control compound in solution to 1×. The final inoculum was approximately 5×10^4 CFU/ml.
(§4) Bacterial strains Streptococcus pneumoniae LSPQ 3412 and LSPQ 3349 were obtained from the “Laboratoire de Sante Publique du Quebec”. Saccharomyces cerevisiae FHCRC-50014 and FHCRC-50514 were obtained from the “Fred Hutchison Cancer Research Center”.

[6] = tested on: Saccharomyces cerevisiae FHCRC-50014; experiment: Antifungal activity, MIC (NCCLS M27-A); type: cell-based; conditions: FHCRC50014, after 24 hours, YPD medium
Description: as §3, §4

[7] = tested on: Staphylococcus aureus (Smith strain, ATCC™ 13709); experiment: In vivo antimicrobial efficacy in infected ICR mice; conditions: ip, ICR mice infected i.p., compound i.p. one hour post infection in 1% SDS, mortality recorded for 7 days, read-out: median effective dose (ED50)
Description: In vivo efficacy studies were performed on ICR mice (supplied by Charles River Laboratories, Wilmington, Mass.) having a bodyweight of 20±2 g. Mice (38) were inoculated i.p. with an LD90-100 dose (1×10^6 CFU/mouse) of Staphylococcus aureus (Smith strain, ATCC™ 13709) suspended in 0.5 mL of BHI containing 5% mucin. Compound 1 at doses 0.1, 0.5, 1 and 5 mg/kg (formulated in 1% SDS for a total volume of 5 μL/g of weight) was administered i.p. one hour post infection (5 mice for each concentration). Another group of 5 mice was treated i.v. with a 10 mg/kg dose of Vancomycin. Finally, a group of 3 mice was administered vehicle only. Mortality was recorded for 7 days.

CCC(C)c1cc2c(=O)c3ccc4c(OC)c5c(=O)c6c(O)ccc(O)c6c(=O)c5c(O)c4c3c(=O)c2c(=O)n1CC(=O)N1CC(C(=O)O)NC(=O)C1C (stereo not drawn) [Compound 1]
GI50 [1]: 8.85 µM | Injection site observation (CD-1 nu/nlu mice): necrosis at the injection site was observed | MTD ([2]; ip): ≥ 50 mg/kg | MTD ([2]; iv): 25 mg/kg | MTD [3]: ≥ 5 mg/kg | Antibacterial activity [4]: inactive | MIC [5]: 8 µg/mL (≈ 10.8 µM) | MIC [6]: 8 µg/mL (≈ 10.8 µM) | ED50 [7]: < 0.1 mg/kg
